According to paper PMC5971063 (ACS infectious diseases, 2017):
≈ marks a conversion by molar mass, not a printed value.

What was measured:
E. cloacae ATCC 13047 [1] = assay: Single-point antibacterial screen
P. aeruginosa ATCC 27853 = assay: Single-point antibacterial screen
E. coli ATCC 25922 [2] = assay: Single-point antibacterial screen
[3] = system: E. coli S30 Extract System (prokaryotic translation); assay: Cell-free in vitro translation assay, prokaryotic system; format: biochemical; settings: 1.25 µM–2.4 nM
S. flexneri 2457 NR-517 [4] = assay: Single-point antibacterial screen; format: cell-based, Shigella flexneri
[5] = system: L. monocytogenes ATCC 19115; assay: Single-point antibacterial screen
C. freundii 4747 CFAA [6] = assay: Single-point antibacterial screen
A. baumannii ATCC 19606 = assay: Single-point antibacterial screen
E. faecalis ATCC 29212 = assay: Single-point antibacterial screen
S. marcescens ATCC 13880 [7] = assay: Single-point antibacterial screen
MRSA A960649 NR-45914 [8] = assay: Single-point antibacterial screen
P. mirabilis HM-752 [9] = assay: Single-point antibacterial screen
[10] = system: S. epidermidis ATCC 12384; assay: Single-point antibacterial screen
Hemolysis assay = format: cell-based, rabbit; settings: rabbit, rabbit erythrocytes (2% w/w)
MRSA ATCC 33591 [11] = assay: Single-point antibacterial screen
K. pneumoniae NR-151410 = assay: Single-point antibacterial screen
rabbit erythrocytes = assay: Hemolysis assay; format: cell-based; settings: 100 µM
[12] = system: rabbit reticulocyte lysate (eukaryotic translation); assay: Cell-free in vitro translation assay, eukaryotic system; format: biochemical; settings: 4.2 µM to 5 nM
S. flexneri 2457 NR-517 [13] = assay: MIC by double-dilution method; format: cell-based, Shigella flexneri
[14] = system: mitochondrial A-site (RNA, rRNA) GGCGUCACCCCUUCGGGACAAGUCGCC; assay: fluorescent displacement assay; settings: 50 mM Na+; F–NEO displaced (0.1 µM 1:1 complex), 10 mM HEPES, 0.4 mM EDTA, pH 7
E. coli ATCC 25922 [15] = assay: MIC by double-dilution method
[16] = system: human cytosolic A-site (RNA, rRNA) GGCGUCGCUCCUUCGGGAAAAGUCGCC; assay: fluorescent displacement assay; settings: 50 mM Na+; F–NEO displaced (0.1 µM 1:1 complex), 10 mM HEPES, 0.4 mM EDTA, pH 7
E. coli A-site = settings: concentration at which F–NEO emission is 50% of maximum
MRSA ATCC 33591 [17] = assay: MIC by double-dilution method; settings: MRSA 33591
[18] = system: S. epidermidis ATCC 12384; assay: MIC by double-dilution method
P. mirabilis HM-752 [19] = assay: MIC by double-dilution method
mitochondrial A-site = settings: F–NEO displacement
E. cloacae ATCC 13047 [20] = assay: MIC by double-dilution method
human cytosolic A-site = settings: F–NEO displacement
[21] = system: L. monocytogenes ATCC 19115; assay: MIC by double-dilution method
MRSA A960649 NR-45914 [22] = assay: MIC by double-dilution method
[23] = system: E. coli A-site (RNA, rRNA) GGCGUCACACCUUCGGGUGAAGUCGCC; assay: fluorescent displacement assay; settings: 50 mM Na+; F–NEO displaced (0.1 µM 1:1 complex), 10 mM HEPES, 0.4 mM EDTA, pH 7
S. marcescens ATCC 13880 [24] = assay: MIC by double-dilution method
C. freundii 4747 CFAA [25] = assay: MIC by double-dilution method

Compound: NCc1ccc2c(c1)C(=O)c1ccccc1C2=O [AMA]
- inhibition at 6.3 µM (E. cloacae ATCC 13047 [1]; Enterobacter cloacae, ATCC13047, read-out: Inhibition of bacterial growth): 0%
- inhibition at 6.3 µM (P. aeruginosa ATCC 27853; Pseudomonas aeruginosa, ATCC27853, read-out: Inhibition of bacterial growth): 5%
- inhibition at 6.3 µM (E. coli ATCC 25922 [2]; Escherichia coli, ATCC25922, read-out: Inhibition of bacterial growth): 2%
- Inhibition of prokaryotic translation (in words) [3]: did not inhibit in vitro translation
- inhibition at 6.3 µM (S. flexneri 2457 NR-517 [4]; Shigella flexneri, 2457NR517, read-out: Inhibition of bacterial growth): 9%
- inhibition at 6.3 µM ([5]; Listeria monocytogenes, ATCC19115, 48 h, read-out: Inhibition of bacterial growth): 37%
- inhibition at 6.3 µM (C. freundii 4747 CFAA [6]; Citrobacter freundii, 4747CFAA, read-out: Inhibition of bacterial growth): 4%
- inhibition at 6.3 µM (A. baumannii ATCC 19606; Acinetobacter baumannii, ATCC19606, read-out: Inhibition of bacterial growth): 0%
- inhibition at 6.3 µM (E. faecalis ATCC 29212; Enterococcus faecalis, ATCC29212, read-out: Inhibition of bacterial growth): 27%
- inhibition at 6.3 µM (S. marcescens ATCC 13880 [7]; Serratia marcescens, ATCC13880, read-out: Inhibition of bacterial growth): 0%
- inhibition at 6.3 µM (MRSA A960649 NR-45914 [8]; Staphylococcus aureus, MRSA, read-out: Inhibition of bacterial growth): 0%
- inhibition at 6.3 µM (P. mirabilis HM-752 [9]; Proteus mirabilis, HM752, read-out: Inhibition of bacterial growth): 19%
- inhibition at 6.3 µM ([10]; Staphylococcus epidermidis, ATCC12384, read-out: Inhibition of bacterial growth): 0%
- hemolysis at 1 h, 100 µM (Hemolysis assay): 10 ± 4.6%
- inhibition at 6.3 µM (MRSA ATCC 33591 [11]; Staphylococcus aureus, ATCC33591|MRSA, read-out: Inhibition of bacterial growth): 0%
- inhibition at 6.3 µM (K. pneumoniae NR-151410; Klebsiella pneumoniae, NR151410, read-out: Inhibition of bacterial growth): 0%

Compound: Triton X-100
- % hemolysis (rabbit erythrocytes): 100.0%

Compound: NC[C@@H]1O[C@H](O[C@H]2[C@@H](O)[C@H](O[C@@H]3[C@@H](O)[C@H](N)C[C@H](N)[C@H]3O[C@H]3O[C@H](CN)[C@@H](O)[C@H](O)[C@H]3N)O[C@@H]2CO)[C@H](N)[C@@H](O)[C@@H]1O [NEO, neomycin]
- Inhibition of eukaryotic translation [12]: inhibition of translation is not observed
- Inhibition of bacterial growth (E. cloacae ATCC 13047 [1]; E. cloacae, 6.3 µM): 100%
- MIC (S. flexneri 2457 NR-517 [13]): 6.3 µM (≈ 3.87 µg/mL)
- Inhibition of bacterial growth (P. aeruginosa ATCC 27853; P. aeruginosa, 6.3 µM): 11%
- IC50 [14]: 87.1 ± 8.3 nM
- Inhibition of bacterial growth (E. coli ATCC 25922 [2]; E. coli, 6.3 µM): 100%
- MIC (E. coli ATCC 25922 [15]): 1.56 µM (≈ 0.959 µg/mL)
- IC50 [16]: 76.5 ± 13.2 nM
- IC50 (E. coli A-site): 87.3 ± 5.9 nM
- Inhibition of bacterial growth (S. flexneri 2457 NR-517 [4]; S. flexneri, 6.3 µM): 100%
- Inhibition of bacterial growth ([5]; L. monocytogenes, 6.3 µM, 48 h incubation): 100%
- MIC (MRSA ATCC 33591 [17]): 400 µM (≈ 246 µg/mL)
- MIC [18]: 1.6 µM (≈ 0.983 µg/mL)
- Inhibition of bacterial growth (C. freundii 4747 CFAA [6]; C. freundii, 6.3 µM): 97%
- MIC (P. mirabilis HM-752 [19]): 6.3 µM (≈ 3.87 µg/mL)
- Inhibition of bacterial growth (A. baumannii ATCC 19606; A. baumannii, 6.3 µM): 91%
- Inhibition of bacterial growth (E. faecalis ATCC 29212; E. faecalis, 6.3 µM): 39%
- Inhibition of bacterial growth (S. marcescens ATCC 13880 [7]; S. marcescens, 6.3 µM): 100%
- IC50 (mitochondrial A-site): 87.1 ± 8.3 nM
- Inhibition of bacterial growth (MRSA A960649 NR-45914 [8]; MRSA A960649, 6.3 µM): 0%
- Inhibition of bacterial growth (P. mirabilis HM-752 [9]; P. mirabilis, 6.3 µM): 96%
- Inhibition of bacterial growth ([10]; S. epidermidis, 6.3 µM): 95%
- MIC (E. cloacae ATCC 13047 [20]): 3.25 µM (≈ 2 µg/mL)
- IC50 (human cytosolic A-site): 76.5 ± 13.2 nM
- MIC [21]: 1.6 µM (≈ 0.983 µg/mL)
- MIC (MRSA A960649 NR-45914 [22]): 400 µM (≈ 246 µg/mL)
- % hemolysis (rabbit erythrocytes): 7.0 ± 0.4%
- IC50 [23]: 87.3 ± 5.9 nM
- MIC (S. marcescens ATCC 13880 [24]): 3.2 µM (≈ 1.97 µg/mL)
- Inhibition of bacterial growth (MRSA ATCC 33591 [11]; MRSA 33591, 6.3 µM): 0%
- Inhibition of bacterial growth (K. pneumoniae NR-151410; K. pneumoniae, 6.3 µM): 0%
- MIC (C. freundii 4747 CFAA [25]): 0.78 µM (≈ 0.479 µg/mL)
